According to publication PMC5218480 (PLoS ONE, 2017):

Test system: MV-4-11 cells
Assay: Gene expression microarray analysis (Affymetrix PrimeView) and GSEA
Format: cell-based, human
Set-up: RFU PODN (11730768_x_at) / Fold change /veh PODN (11730768_x_at) / RFU LINC00158 (11744669_a_at) / Fold change /veh LINC00158 (11744669_a_at) / RFU DUSP10 (11751237_a_at) / Fold change /veh DUSP10 (11751237_a_at) / RFU ID3 (11757404_x_at) / Fold change /veh ID3 (11757404_x_at) / RFU PLEKHG5 (11737974_s_at) / Fold change /veh PLEKHG5 (11737974_s_at) / RFU LRRC4B (11730491_at) / Fold change /veh LRRC4B (11730491_at) / RFU GIMAP4 (11747438_a_at) / Fold change /veh GIMAP4 (11747438_a_at) / RFU KRT8 (11758183_x_at) / Fold change /veh KRT8 (11758183_x_at) / RFU CNN1 (11734310_a_at) / Fold change /veh CNN1 (11734310_a_at) / RFU VPS37D (11726825_at) / Fold change /veh VPS37D (11726825_at) / RFU C10orf10 (11716522_x_at) / Fold change /veh C10orf10 (11716522_x_at) / RFU KIR2DL2 /// KIR2DL4 /// KIR2DL5A /// KIR2DL5B /// KIR2DS1 /// KIR2DS2 /// KIR2DS3 /// KIR2DS4 /// KIR3DL3 /// KIR3DL3 /// KIR3DS1 (11738374_at) / Fold change /veh KIR2DL2 /// KIR2DL4 /// KIR2DL5A /// KIR2DL5B /// KIR2DS1 /// KIR2DS2 /// KIR2DS3 /// KIR2DS4 /// KIR3DL3 /// KIR3DL3 /// KIR3DS1 (11738374_at) / RFU C1QL1 (11718748_at) / Fold change /veh C1QL1 (11718748_at) / RFU TMPRSS4 (11747572_a_at) / Fold change /veh TMPRSS4 (11747572_a_at) / RFU HAMP (11756126_x_at) / Fold change /veh HAMP (11756126_x_at) / RFU RNFT2 (11725882_a_at) / Fold change /veh RNFT2 (11725882_a_at) / RFU NR4A2 (11747474_a_at) / Fold change /veh NR4A2 (11747474_a_at) / RFU ABCC12 (11746883_a_at) / Fold change /veh ABCC12 (11746883_a_at) / RFU TMEM136 (11760407_x_at) / Fold change /veh TMEM136 (11760407_x_at) / RFU CLDN22 /// WWC2 (11732394_at) / Fold change /veh CLDN22 /// WWC2 (11732394_at) / RFU HLA-DPB1 (11760878_x_at) / Fold change /veh HLA-DPB1 (11760878_x_at) / RFU SPINT1 (11716480_a_at) / Fold change /veh SPINT1 (11716480_a_at) / RFU GAP43 (11754022_s_at) / Fold change /veh GAP43 (11754022_s_at) / RFU A4GNT (11735810_at) / Fold change /veh A4GNT (11735810_at) / RFU PRB3 (11715151_x_at) / Fold change /veh PRB3 (11715151_x_at) / RFU TUBB4B (11761932_at) / Fold change /veh TUBB4B (11761932_at) / RFU CAPN14 (11732068_a_at) / Fold change /veh CAPN14 (11732068_a_at) / RFU TMCC2 (11721928_a_at) / Fold change /veh TMCC2 (11721928_a_at) / RFU IRGQ (11745062_a_at) / Fold change /veh IRGQ (11745062_a_at) / RFU FAM174B (11720279_a_at) / Fold change /veh FAM174B (11720279_a_at) / RFU TMPRSS4 (11748680_a_at) / Fold change /veh TMPRSS4 (11748680_a_at) / RFU FAM212B (11763350_a_at) / Fold change /veh FAM212B (11763350_a_at) / RFU PLEKHG5 (11743358_a_at) / Fold change /veh PLEKHG5 (11743358_a_at) / RFU ZSCAN30 (11745921_a_at) / Fold change /veh ZSCAN30 (11745921_a_at) / RFU CMKLR1 (11741424_a_at) / Fold change /veh CMKLR1 (11741424_a_at) / RFU LOC101060620 /// MAPK8IP1 (11723275_at) / Fold change /veh LOC101060620 /// MAPK8IP1 (11723275_at) / RFU SPTSSB (11747773_x_at) / Fold change /veh SPTSSB (11747773_x_at) / RFU PRSS12 (11739890_at) / Fold change /veh PRSS12 (11739890_at) / RFU BIN1 (11741810_x_at) / Fold change /veh BIN1 (11741810_x_at) / RFU WNT11 (11732464_a_at) / Fold change /veh WNT11 (11732464_a_at) / RFU C10orf10 (11716521_a_at) / Fold change /veh C10orf10 (11716521_a_at) / RFU C5orf56 (11738089_at) / Fold change /veh C5orf56 (11738089_at) / RFU CYB561 (11721691_x_at) / Fold change /veh CYB561 (11721691_x_at) / RFU ANKRD19P (11752326_a_at) / Fold change /veh ANKRD19P (11752326_a_at) / RFU OR2T12 /// OR2T33 /// OR2T8 (11738714_s_at) / Fold change /veh OR2T12 /// OR2T33 /// OR2T8 (11738714_s_at) / RFU VCAN (11748164_a_at) / Fold change /veh VCAN (11748164_a_at) / RFU JSRP1 (11732532_at) / Fold change /veh JSRP1 (11732532_at) / RFU KRTAP10-11 (11738290_x_at) / Fold change /veh KRTAP10-11 (11738290_x_at) / RFU MYO3A (11730013_a_at) / Fold change /veh MYO3A (11730013_a_at) / RFU EBF3 (11725865_a_at) / Fold change /veh EBF3 (11725865_a_at) / RFU CAMK2N1 (11719241_x_at) / Fold change /veh CAMK2N1 (11719241_x_at) / RFU C5orf56 (11738088_a_at) / Fold change /veh C5orf56 (11738088_a_at) / RFU OLFML3 (11715873_a_at) / Fold change /veh OLFML3 (11715873_a_at) / RFU LOC100653217 /// NTM (11731650_a_at) / Fold change /veh LOC100653217 /// NTM (11731650_a_at) / RFU MAPK11 (11762145_a_at) / Fold change /veh MAPK11 (11762145_a_at) / RFU FIZ1 (11724087_x_at) / Fold change /veh FIZ1 (11724087_x_at) / RFU OASL (11726364_x_at) / Fold change /veh OASL (11726364_x_at) / RFU SOX15 (11748057_x_at) / Fold change /veh SOX15 (11748057_x_at) / RFU CD79A (11719716_a_at) / Fold change /veh CD79A (11719716_a_at) / RFU HIST1H1D (11736915_at) / Fold change /veh HIST1H1D (11736915_at) / RFU CASKIN2 (11723855_a_at) / Fold change /veh CASKIN2 (11723855_a_at) / RFU LOC730098 (11760151_x_at) / Fold change /veh LOC730098 (11760151_x_at) / RFU OR4N2 (11742367_at) / Fold change /veh OR4N2 (11742367_at) / RFU PRRT2 (11749266_a_at) / Fold change /veh PRRT2 (11749266_a_at) / RFU SNX32 (11753110_a_at) / Fold change /veh SNX32 (11753110_a_at) / RFU CDHR5 (11726645_a_at) / Fold change /veh CDHR5 (11726645_a_at) / RFU RCAN1 (11760418_a_at) / Fold change /veh RCAN1 (11760418_a_at) / RFU FAM167A (11723789_a_at) / Fold change /veh FAM167A (11723789_a_at) / RFU FAM26E (11764081_at) / Fold change /veh FAM26E (11764081_at) / RFU ISYNA1 (11749810_s_at) / Fold change /veh ISYNA1 (11749810_s_at) / RFU ACY1 (11761880_at) / Fold change /veh ACY1 (11761880_at) / RFU 11764098_at / Fold change /veh 11764098_at / RFU SAMD14 (11745864_x_at) / Fold change /veh SAMD14 (11745864_x_at) / RFU NPB (11741838_a_at) / Fold change /veh NPB (11741838_a_at) / RFU TMPRSS6 (11731388_a_at) / Fold change /veh TMPRSS6 (11731388_a_at) / RFU KRTAP10-2 (11738614_at) / Fold change /veh KRTAP10-2 (11738614_at) / RFU ARHGAP8 /// PRR5-ARHGAP8 (11727945_x_at) / Fold change /veh ARHGAP8 /// PRR5-ARHGAP8 (11727945_x_at) / RFU KRTAP5-7 /// NADSYN1 (11734609_at) / Fold change /veh KRTAP5-7 /// NADSYN1 (11734609_at) / RFU RASL12 (11751679_a_at) / Fold change /veh RASL12 (11751679_a_at) / RFU CDKN2B (11736163_a_at) / Fold change /veh CDKN2B (11736163_a_at) / RFU PRF1 (11729649_at) / Fold change /veh PRF1 (11729649_at) / RFU, ZNF638 /// ZNF638-IT1 / Fold change vs veh, ZNF638 /// ZNF638-IT1 / RFU, PANK3 / Fold change vs veh, PANK3 / RFU, SH3YL1 / Fold change vs veh, SH3YL1 / RFU, ZEB2 / Fold change vs veh, ZEB2 / RFU, NRIP1 / Fold change vs veh, NRIP1 / RFU, PTTG1IP / Fold change vs veh, PTTG1IP / RFU, CAPN2 / Fold change vs veh, CAPN2 / RFU, MED14 / Fold change vs veh, MED14 / RFU, SNORA58 / Fold change vs veh, SNORA58 / RFU, C1orf63 / Fold change vs veh, C1orf63 / RFU, LRRFIP1 / Fold change vs veh, LRRFIP1 / RFU, NDUFAF7 / Fold change vs veh, NDUFAF7 / RFU, SLC12A2 / Fold change vs veh, SLC12A2 / RFU, IBTK / Fold change vs veh, IBTK / RFU, ESF1 / Fold change vs veh, ESF1 / Fold change vs veh, TMEM50B / RFU, TAOK1 / Fold change vs veh, TAOK1 / RFU, ACBD3 / Fold change vs veh, ACBD3 / RFU, TMA16 / Fold change vs veh, TMA16 / RFU, RWDD3 / Fold change vs veh, RWDD3 / RFU, BCAT1 / Fold change vs veh, BCAT1 / RFU, EDEM3 / Fold change vs veh, EDEM3 / RFU, TMEM33 / Fold change vs veh, TMEM33 / RFU, WDR75 / Fold change vs veh, WDR75 / RFU, AHCTF1 / Fold change vs veh, AHCTF1 / RFU, TFRC / Fold change vs veh, TFRC / RFU, ZDHHC17 / Fold change vs veh, ZDHHC17 / RFU, NOM1 / Fold change vs veh, NOM1 / RFU, ARL8B / Fold change vs veh, ARL8B / RFU, ZBTB11 / Fold change vs veh, ZBTB11 / RFU, TAMM41 / Fold change vs veh, TAMM41 / RFU, KIAA1704 /// LOC100996395 / Fold change vs veh, KIAA1704 /// LOC100996395 / RFU, ING1 / Fold change vs veh, ING1 / RFU, TRMT61B / Fold change vs veh, TRMT61B / RFU, FUBP3 / Fold change vs veh, FUBP3 / RFU, TP53 / Fold change vs veh, TP53 / RFU, TNKS2 / Fold change vs veh, TNKS2 / RFU, ZFP14 / Fold change vs veh, ZFP14 / RFU, ACTR2 / Fold change vs veh, ACTR2 / RFU, PPP3R1 / Fold change vs veh, PPP3R1 / RFU, PIK3R1 / Fold change vs veh, PIK3R1 / RFU, HNRNPA1 / Fold change vs veh, HNRNPA1 / RFU, RNF170 / Fold change vs veh, RNF170 / RFU, ZNF28 / Fold change vs veh, ZNF28 / RFU, RNGTT / Fold change vs veh, RNGTT / RFU, OGT / Fold change vs veh, OGT / RFU, BRD1 / Fold change vs veh, BRD1 / RFU, MARS / Fold change vs veh, MARS / RFU, ZNF655 / Fold change vs veh, ZNF655 / RFU, FAHD1 / Fold change vs veh, FAHD1 / RFU, BDP1 / Fold change vs veh, BDP1 / RFU, LRRCC1 / Fold change vs veh, LRRCC1 / RFU, ARID1A / Fold change vs veh, ARID1A / RFU, ZNF146 / Fold change vs veh, ZNF146 / RFU, ZNF330 / Fold change vs veh, ZNF330 / RFU, GPN3 / Fold change vs veh, GPN3 / RFU, C9orf123 / Fold change vs veh, C9orf123 / RFU, N4BP2L2 / Fold change vs veh, N4BP2L2 / RFU, ARFIP1 / Fold change vs veh, ARFIP1 / RFU, FAM179B / Fold change vs veh, FAM179B / RFU, BCL10 / Fold change vs veh, BCL10 / RFU, UHRF1BP1L / Fold change vs veh, UHRF1BP1L / RFU, BET1 / Fold change vs veh, BET1 / RFU, CNOT2 / Fold change vs veh, CNOT2 / RFU, ZNF268 / Fold change vs veh, ZNF268 / Fold change vs veh, ZNF507 / RFU, DGCR2 / Fold change vs veh, DGCR2 / RFU, WDSUB1 / Fold change vs veh, WDSUB1 / Fold change vs veh, HSP90B1 /// MIR3652 / RFU, ADSS / Fold change vs veh, ADSS / RFU, GK / Fold change vs veh, GK / RFU, ZNF148 / Fold change vs veh, ZNF148 / RFU, TAF9 / Fold change vs veh, TAF9 / RFU, SLC1A5 / Fold change vs veh, SLC1A5 / RFU, SLMO2 / Fold change vs veh, SLMO2 / RFU, ABCC4 / Fold change vs veh, ABCC4 / RFU, LOC101060439 /// RAP1B / Fold change vs veh, LOC101060439 /// RAP1B / RFU, RFX7 / Fold change vs veh, RFX7 / RFU, GTPBP10 / Fold change vs veh, GTPBP10 / RFU, CNEP1R1 / Fold change vs veh, CNEP1R1 / RFU, BIVM-ERCC5 /// ERCC5 / Fold change vs veh, BIVM-ERCC5 /// ERCC5 / RFU, ILF3 / Fold change vs veh, ILF3 / RFU 11762660_at / Fold change /veh 11762660_at / RFU VCAN (11757783_s_at) / Fold change /veh VCAN (11757783_s_at) / RFU DDX43 (11728927_at) / Fold change /veh DDX43 (11728927_at) / RFU KRT8 (11758188_x_at) / Fold change /veh KRT8 (11758188_x_at) / RFU NKD1 (11759106_at) / Fold change /veh NKD1 (11759106_at) / RFU SRD5A1 (11742802_a_at) / Fold change /veh SRD5A1 (11742802_a_at) / RFU TPSAB1 /// TPSB2 (11721975_s_at) / Fold change /veh TPSAB1 /// TPSB2 (11721975_s_at) / RFU GSTM3 (11746129_a_at) / Fold change /veh GSTM3 (11746129_a_at) / RFU IL23R (11737362_x_at) / Fold change /veh IL23R (11737362_x_at) / RFU TMEM51 (11727254_a_at) / Fold change /veh TMEM51 (11727254_a_at) / RFU PIWIL2 (11732686_x_at) / Fold change /veh PIWIL2 (11732686_x_at) / RFU ORM1 (11744905_x_at) / Fold change /veh ORM1 (11744905_x_at) / RFU CCDC152 (11743942_at) / Fold change /veh CCDC152 (11743942_at) / RFU ECM1 (11717891_a_at) / Fold change /veh ECM1 (11717891_a_at) / RFU IL23R (11748794_a_at) / Fold change /veh IL23R (11748794_a_at) / RFU TNFAIP8L3 (11732012_x_at) / Fold change /veh TNFAIP8L3 (11732012_x_at) / RFU MBOAT4 (11741988_at) / Fold change /veh MBOAT4 (11741988_at) / RFU 11764193_at / Fold change /veh 11764193_at / RFU TMEM53 (11763286_at) / Fold change /veh TMEM53 (11763286_at) / RFU MAGEB2 (11727129_at) / Fold change /veh MAGEB2 (11727129_at) / RFU TMEM200A (11744735_a_at) / Fold change /veh TMEM200A (11744735_a_at) / RFU CCDC152 (11751479_a_at) / Fold change /veh CCDC152 (11751479_a_at) / RFU FAM211A (11726209_a_at) / Fold change /veh FAM211A (11726209_a_at) / RFU RGS16 (11746705_a_at) / Fold change /veh RGS16 (11746705_a_at) / RFU VCAN (11755009_s_at) / Fold change /veh VCAN (11755009_s_at) / RFU RHOB (11743442_s_at) / Fold change /veh RHOB (11743442_s_at) / RFU RGS16 (11720943_a_at) / Fold change /veh RGS16 (11720943_a_at) / RFU RGS16 (11720944_at) / Fold change /veh RGS16 (11720944_at) / RFU, VPS4B / Fold change vs veh, VPS4B / RFU, CREB1 / Fold change vs veh, CREB1 / RFU, DNAJC13 / Fold change vs veh, DNAJC13 / RFU, GNAQ / Fold change vs veh, GNAQ / RFU, CDK5R1 / Fold change vs veh, CDK5R1 / RFU, ZRANB3 / Fold change vs veh, ZRANB3 / RFU, CUL4A / Fold change vs veh, CUL4A / RFU, CCNY / Fold change vs veh, CCNY / RFU, UFL1 / Fold change vs veh, UFL1 / RFU, COG3 / Fold change vs veh, COG3 / RFU, DIAPH2 / Fold change vs veh, DIAPH2 / RFU, SKA2 / Fold change vs veh, SKA2 / RFU, AFF3 / Fold change vs veh, AFF3 / RFU, LMF1 / Fold change vs veh, LMF1 / RFU, IPO11 / Fold change vs veh, IPO11 / RFU, DFFB / Fold change vs veh, DFFB / RFU, FOXP1 / Fold change vs veh, FOXP1 / RFU, CARD8 / Fold change vs veh, CARD8 / RFU, STRN3 / Fold change vs veh, STRN3 / RFU, ADK / Fold change vs veh, ADK / RFU, RASSF2 / Fold change vs veh, RASSF2 / RFU, WIPF1 / Fold change vs veh, WIPF1 / RFU, LARP1B / Fold change vs veh, LARP1B / RFU, RASA1 / Fold change vs veh, RASA1 / RFU, RB1 / Fold change vs veh, RB1 / RFU, PPFIA1 / Fold change vs veh, PPFIA1 / RFU, MAT2A / Fold change vs veh, MAT2A / RFU, CCT5 / Fold change vs veh, CCT5 / RFU, WDR92 / Fold change vs veh, WDR92 / RFU, CUX1 / Fold change vs veh, CUX1 / RFU, TTC7A / Fold change vs veh, TTC7A / RFU, TMEM135 / Fold change vs veh, TMEM135 / RFU, DEPTOR / Fold change vs veh, DEPTOR / RFU, CPM / Fold change vs veh, CPM / RFU, DNAJB6 / Fold change vs veh, DNAJB6 / RFU, CACNA2D3 / Fold change vs veh, CACNA2D3 / RFU, DTX4 / Fold change vs veh, DTX4 / RFU, TFCP2 / Fold change vs veh, TFCP2 / RFU, GMCL1 /// GMCL1P1 / Fold change vs veh, GMCL1 /// GMCL1P1 / RFU, AEBP2 / Fold change vs veh, AEBP2 / RFU, SNHG1 /// SNORD22 /// SNORD25 /// SNORD26 /// SNORD27 /// SNORD28 /// SNORD29 /// SNORD31 / Fold change vs veh, SNHG1 /// SNORD22 /// SNORD25 /// SNORD26 /// SNORD27 /// SNORD28 /// SNORD29 /// SNORD31 / Fold change (Aza/veh), C12orf56 (ProbeSet 11735607_a_at) / Fold change (ACY-1035/veh), C12orf56 (ProbeSet 11735607_a_at) / Fold change (Aza/veh), FGFR1OP (ProbeSet 11751329_s_at) / Fold change (ACY-1035/veh), FGFR1OP (ProbeSet 11751329_s_at) / Fold change (Aza/veh), VPS36 (ProbeSet 11739960_a_at) / Fold change (ACY-1035/veh), VPS36 (ProbeSet 11739960_a_at) / RFU SYPL1 (11715823_x_at) / Fold change /veh SYPL1 (11715823_x_at) / RFU IGFBP7 (11715501_s_at) / Fold change /veh IGFBP7 (11715501_s_at) / RFU REEP3 (11722064_at) / Fold change /veh REEP3 (11722064_at) / RFU IGLL1 (11728026_x_at) / Fold change /veh IGLL1 (11728026_x_at): dose or concentration left out as unconfirmed
Settings: ProbeSet 11728314_at; LIST B

Question: How did the “RFU, ZNF148” value turn out when `Nc1ncn([C@@H]2O[C@H](CO)[C@@H](O)[C@H]2O)c(=O)n1` [azacitidine] was run?
Answer: 202.48 RFU
